Experimental data as given in patent US20220348595A1, “COMPOUNDS AND METHODS FOR THE TARGETED DEGRADATION OF ESTROGEN RECEPTORS” (Endotarget Inc., priority 2021, published 2022).

Experiments:
Assay type in all cases: cell-based
[1] = tested on: MCF-7 breast cancer cells; test: MCF-7 proliferation / cell viability assay; details: Homo sapiens, MCF7; MCF-7 proliferation with 0.1 nM 17-beta estradiol; read-out: IC50 (anti-proliferation)
Outline: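 MCF-7 cells in 5% FBS DMEM were exposed for 5 days to compound at 6 doses from 10^−10 M to 10^−5 M, with DMSO as vehicle. Viable cells were counted by Coulter counter. Survival ratio = treated/vehicle viable cell number, vehicle set to 100%.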

ERα = molecular target: T1, ERα (Homo sapiens, UniProt P03372); test: ER degradation in MCF-7 cells (Western blot); details: for DC50: ER degradation, 24 hours; for Dmax: MCF7, Maximal ER degradation, read-out: Dmax
T1 construct: endogenous in cells; host or cells: MCF-7
T1 sequence (P03372 1-595): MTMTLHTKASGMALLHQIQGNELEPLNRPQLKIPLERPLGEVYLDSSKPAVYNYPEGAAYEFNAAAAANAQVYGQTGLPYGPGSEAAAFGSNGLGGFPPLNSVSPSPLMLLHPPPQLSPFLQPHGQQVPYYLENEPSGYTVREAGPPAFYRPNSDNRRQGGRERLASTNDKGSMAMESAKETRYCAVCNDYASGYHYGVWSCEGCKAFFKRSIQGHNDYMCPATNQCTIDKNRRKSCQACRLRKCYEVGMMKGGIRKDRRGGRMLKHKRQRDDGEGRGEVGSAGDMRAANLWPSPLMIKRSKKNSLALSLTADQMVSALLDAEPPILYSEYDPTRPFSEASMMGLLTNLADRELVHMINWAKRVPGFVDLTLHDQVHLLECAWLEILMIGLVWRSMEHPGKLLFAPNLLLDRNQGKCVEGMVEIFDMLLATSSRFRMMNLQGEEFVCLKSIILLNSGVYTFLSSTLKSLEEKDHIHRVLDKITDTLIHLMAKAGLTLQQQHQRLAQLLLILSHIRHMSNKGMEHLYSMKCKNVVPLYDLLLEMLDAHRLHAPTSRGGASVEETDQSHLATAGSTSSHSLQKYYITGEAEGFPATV
Outline: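 MCF-7 cells treated with a range of compound concentrations for 24 hours, then lysed; 50 μg protein probed for ERα by Western blot with infrared imaging. DC50 is concentration giving 50% ER reduction; Dmax is the highest percentage reduction over the range tested.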

ER = molecular target: T2, ER (Homo sapiens, UniProt P03372); test: ER antagonism (T47D ERE luciferase), T47d-kb-Luc cells; details: read-out: IC50 (ER antagonistm)
T2 construct: endogenous in cells; host or cells: T47d-kb-Luc (T47D stably transfected with a luciferase reporter gene only)
T2 sequence (P03372 1-595): T1 sequence (P03372 1-595)
Outline: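 Stably transfected T47d-kb-Luc human breast cancer cells were used, and antagonism was measured as inhibition of estradiol-driven activity. Data were normalised to the estradiol control. Five concentrations were tested in quadruplicate across at least three experiments.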

SMILES | IC50 [1] [nM] | DC50 (ERα) [nM] | Dmax (ERα) [%] | IC50 (ER) [nM]
CC/C(=C(/c1ccc(OCCN2CCN(CCCN3CCN(c4ccc5c(c4)C(=O)N(C4CCC(=O)NC4=O)C5=O)CC3)CC2)cc1)c1ccc(B(O)O)cc1)c1ccccc1 (stereo not shown) [Compound 37, (Z)-(4-(1-(4-(2-(4-(3-(4-(2-(2,6-dioxopiperidin-3-yl)-1,3-dioxoisoindolin-5-yl)piperazin-1-yl)propyl)piperazin-1-yl)ethoxy)phenyl)-2-phenylbut-1-en-1-yl)phenyl)boronic acid] | 10 to 50 | < 10 | > 90 | 10 to 50
CC/C(=C(\c1ccc(OCCN2CCN(CCCN3CCN(c4ccc5c(c4)C(=O)N(C4CCC(=O)NC4=O)C5=O)CC3)CC2)cc1)c1ccc(B(O)O)cc1)c1ccccc1 (stereo not shown) [Compound 38, (E)-(4-(1-(4-(2-(4-(3-(4-(2-(2,6-dioxopiperidin-3-yl)-1,3-dioxoisoindolin-5-yl)piperazin-1-yl)propyl)piperazin-1-yl)ethoxy)phenyl)-2-phenylbut-1-en-1-yl)phenyl)boronic acid] | 10 to 50 | < 10 | > 90 | 10 to 50
CC/C(=C(\c1ccc(B(O)O)cc1)c1ccc(N2CCC(CNC3CCN(c4ccc5c(c4)C(=O)N(C4CCC(=O)NC4=O)C5=O)CC3)CC2)cc1)c1ccccc1 (stereo not shown) [Compound 39, (Z)-(4-(1-(4-(4-(((1-(2-(2,6-dioxopiperidin-3-yl)-1,3-dioxoisoindolin-5-yl)piperidin-4-yl)amino)methyl)piperidin-1-yl)phenyl)-2-phenylbut-1-en-1-yl)phenyl)boronic acid] | 10 to 50 | < 10 | > 90 | 10 to 50
CC/C(=C(/c1ccc(B(O)O)cc1)c1ccc(N2CCC(CNC3CCN(c4ccc5c(c4)C(=O)N(C4CCC(=O)NC4=O)C5=O)CC3)CC2)cc1)c1ccccc1 (stereo not shown) [Compound 40, (E)-(4-(1-(4-(4-(((1-(2-(2,6-dioxopiperidin-3-yl)-1,3-dioxoisoindolin-5-yl)piperidin-4-yl)amino)methyl)piperidin-1-yl)phenyl)-2-phenylbut-1-en-1-yl)phenyl)boronic acid] | 10 to 50 | < 10 | > 90 | 10 to 50
CC/C(=C(/c1ccc(OCCN2CCN(c3ccc4c(c3)C(=O)N(C3CCC(=O)NC3=O)C4=O)CC2)cc1)c1ccc(B(O)O)cc1)c1ccccc1 (stereo not shown) [Compound 41, (Z)-(4-(1-(4-(2-(4-(2-(2,6-dioxopiperidin-3-yl)-1,3-dioxoisoindolin-5-yl)piperazin-1-yl)ethoxy)phenyl)-2-phenylbut-1-en-1-yl)phenyl)boronic acid] | 10 to 50 | 10 to 50 | > 50 | 10 to 50
CC/C(=C(\c1ccc(OCCN2CCN(c3ccc4c(c3)C(=O)N(C3CCC(=O)NC3=O)C4=O)CC2)cc1)c1ccc(B(O)O)cc1)c1ccccc1 (stereo not shown) [Compound 42, (E)-(4-(1-(4-(2-(4-(2-(2,6-dioxopiperidin-3-yl)-1,3-dioxoisoindolin-5-yl)piperazin-1 yl)ethoxy)phenyl)-2-phenylbut-1-en-1-yl)phenyl)boronic acid] | 10 to 50 | 10 to 50 | > 50 | 10 to 50
CC/C(=C(\c1ccc(B(O)O)cc1)c1ccc(N2CCN(CCCN3CCN(c4ccc5c(c4)C(=O)N(C4CCC(=O)NC4=O)C5=O)CC3)CC2)cc1)c1ccccc1 (stereo not shown) [Compound 43, (Z)-(4-(1-(4-(4-(3-(4-(2-(2,6-dioxopiperidin-3-yl)-1,3-dioxoisoindolin-5-yl)piperazin-1-yl)propyl)piperazin-1-yl)phenyl)-2-phenylbut-1-en-1-yl)phenyl)boronic acid] | < 10 | < 10 | > 90 | 10 to 50
CC/C(=C(/c1ccc(B(O)O)cc1)c1ccc(N2CCN(CCCN3CCN(c4ccc5c(c4)C(=O)N(C4CCC(=O)NC4=O)C5=O)CC3)CC2)cc1)c1ccccc1 (stereo not shown) [Compound 44, (E)-(4-(1-(4-(4-(3-(4-(2-(2,6-dioxopiperidin-3-yl)-1,3-dioxoisoindolin-5-yl)piperazin-1-yl)propyl)piperazin-1-yl)phenyl)-2-phenylbut-1-en-1-yl)phenyl)boronic acid] | 10 to 50 | < 10 | > 90 | < 10
CC/C(=C(\c1ccc(B(O)O)cc1)c1ccc(N2CCC(CCCN3CCN(c4ccc5c(c4)C(=O)N(C4CCC(=O)NC4=O)C5=O)CC3)CC2)cc1)c1ccccc1 (stereo not shown) [Compound 51, (Z)-(4-(1-(4-(4-(3-(4-(2-(2,6-dioxopiperidin-3-yl)-1,3-dioxoisoindolin-5-yl)piperazin-1-yl)propyl)piperidin-1-yl)phenyl)-2-phenylbut-1-en-1-yl)phenyl)boronic acid] | 10 to 50 | < 10 | > 90 | 10 to 50
CC/C(=C(/c1ccc(B(O)O)cc1)c1ccc(N2CCC(CCCN3CCN(c4ccc5c(c4)C(=O)N(C4CCC(=O)NC4=O)C5=O)CC3)CC2)cc1)c1ccccc1 (stereo not shown) [Compound 52, (E)-(4-(1-(4-(4-(3-(4-(2-(2,6-dioxopiperidin-3-yl)-1,3-dioxoisoindolin-5-yl)piperazin-1-yl)propyl)piperidin-1-yl)phenyl)-2-phenylbut-1-en-1-yl)phenyl)boronic acid] | 10 to 50 | < 10 | > 90 | 10 to 50

Next, values leading:

IC50 [1] [nM] | DC50 (ERα) [nM] | Dmax (ERα) [%] | IC50 (ER) [nM] | SMILES
10 to 50 | < 10 | > 90 | < 10 | CC/C(=C(\c1ccc(B(O)O)cc1)c1ccc(N2CCN(CCCN3CCN(c4ccc5c(c4)CN(C4CCC(=O)NC4=O)C5=O)CC3)CC2)cc1)c1ccccc1 (stereo not shown) [Compound 45, (Z)-(4-(1-(4-(4-(3-(4-(2-(2,6-dioxopiperidin-3-yl)-1-oxoisoindolin-5-yl)piperazin-1-yl)propyl)piperazin-1-yl)phenyl)-2-phenylbut-1-en-1-yl)phenyl)boronic acid]
10 to 50 | < 10 | > 90 | < 10 | CC/C(=C(/c1ccc(B(O)O)cc1)c1ccc(N2CCN(CCCN3CCN(c4ccc5c(c4)CN(C4CCC(=O)NC4=O)C5=O)CC3)CC2)cc1)c1ccccc1 (stereo not shown) [Compound 46, (E)-(4-(1-(4-(4-(3-(4-(2-(2,6-dioxopiperidin-3-yl)-1-oxoisoindolin-5-yl)piperazin-1-yl)propyl)piperazin-1-yl)phenyl)-2-phenylbut-1-en-1-yl)phenyl)boronic acid]
10 to 50 | < 10 | > 90 | 10 to 50 | CC/C(=C(\c1ccc(B(O)O)cc1)c1ccc(C2CCN(CCCN3CCN(c4ccc5c(c4)C(=O)N(C4CCC(=O)NC4=O)C5=O)CC3)CC2)cc1)c1ccccc1 (stereo not shown) [Compound 47]
10 to 50 | < 10 | > 90 | 10 to 50 | CC/C(=C(/c1ccc(B(O)O)cc1)c1ccc(C2CCN(CCCN3CCN(c4ccc5c(c4)C(=O)N(C4CCC(=O)NC4=O)C5=O)CC3)CC2)cc1)c1ccccc1 (stereo not shown) [Compound 48, (E)-(4-(1-(4-(1-(3-(4-(2-(2,6-dioxopiperidin-3-yl)-1,3-dioxoisoindolin-5-yl)piperazin-1-yl)propyl)piperidin-4-yl)phenyl)-2-phenylbut-1-en-1-yl)phenyl)boronic acid]
10 to 50 | < 10 | > 90 | < 10 | CC/C(=C(\c1ccc(B(O)O)cc1)c1ccc(C2CCN(CCCN3CCN(c4ccc5c(c4)CN(C4CCC(=O)NC4=O)C5=O)CC3)CC2)cc1)c1ccccc1 (stereo not shown) [Compound 49, (Z)-(4-(1-(4-(1-(3-(4-(2-(2,6-dioxopiperidin-3-yl)-1-oxoisoindolin-5-yl)piperazin-1-yl)propyl)piperidin-4-yl)phenyl)-2-phenylbut-1-en-1-yl)phenyl)boronic acid]
10 to 50 | < 10 | > 90 | < 10 | CC/C(=C(/c1ccc(B(O)O)cc1)c1ccc(C2CCN(CCCN3CCN(c4ccc5c(c4)CN(C4CCC(=O)NC4=O)C5=O)CC3)CC2)cc1)c1ccccc1 (stereo not shown) [Compound 50, (E)-(4-(1-(4-(1-(3-(4-(2-(2,6-dioxopiperidin-3-yl)-1-oxoisoindolin-5-yl)piperazin-1-yl)propyl)piperidin-4-yl)phenyl)-2-phenylbut-1-en-1-yl)phenyl)boronic acid]
